In US8338337B2, “Substituted pyridines having a herbicidal effect” (BASF SE, priority 2008, dated 2012):

Columns and labels:
AMARE = assay: greenhouse pre-emergence herbicidal test; type: in vivo, Amaranthus retroflexus; conditions: 0.5 kg/ha, scale 0 to 100
Source text: The seeds of the test plants were sown separately for each species. For the pre-emergence treatment, the active compounds, which had been suspended or emulsified in water, were applied directly after sowing by means of finely distributing nozzles. The containers were irrigated gently to promote germination and growth and subsequently covered with transparent plastic hoods until the plants had rooted. This cover caused uniform germination of the test plants, unless this has been impaired by the active compounds. Depending on the species, the plants were kept at 10-25° C. or 20-35° C. The test period extended over 2 to 4 weeks. During this time, the plants were tended, and their response to the individual treatments was evaluated. Evaluation was carried out using a scale from 0 to 100. 100 means no emergence of the plants, or complete destruction of at least the aerial moieties, and 0 means no damage, or normal course of growth. A good herbicidal activity is given at values of at least 70 and a very good herbicidal activity is given at values of at least 85. [table]

ABUTH = assay: greenhouse post-emergence herbicidal test; type: in vivo, Abutilon theophrasti; conditions: 3.0 kg/ha, scale 0 to 100
Source text: The seeds of the test plants were sown separately for each species. For the post-emergence treatment, the test plants were first grown to a height of 3 to 15 cm, depending on the plant habit, and then treated with the active compounds which had been suspended or emulsified in water. For this purpose, the test plants were either sown directly and grown in the same containers, or they were first grown separately as seedlings and transplanted into the test containers a few days prior to treatment. Depending on the species, the plants were kept at 10-25° C. or 20-35° C. The test period extended over 2 to 4 weeks. During this time, the plants were tended, and their response to the individual treatments was evaluated. Evaluation was carried out using a scale from 0 to 100. 100 means no emergence of the plants, or complete destruction of at least the aerial moieties, and 0 means no damage, or normal course of growth. A good herbicidal activity is given at values of at least 70 and a very good herbicidal activity is given at values of at least 85. [table]

| Structure (SMILES) | herbicidal activity against AMARE (AMARE) | herbicidal activity against ABUTH (ABUTH) |
| --- | --- | --- |
| O=c1oc2cccnc2c(O)c1-c1cc(C(F)(F)F)ccc1C(F)(F)F [I-35] | very good (a very good herbicidal activity is given at values of at least 85) | – |
| O=c1oc2ccc(O)nc2c(O)c1-c1ccccc1C(F)(F)F [I-23] | – | good (A good herbicidal activity is given at values of at least 70) |
